Assay results reported in patent US9765037B2, “Compositions and methods for treating toxoplasmosis, cryptosporidiosis, and other apicomplexan protozoan related diseases” (University of Washington Through its Center for …, priority 2010, dated 2017).
Converted amounts (≈) assume the structure as drawn. Like-named read-outs stand apart in the source and are kept apart here.

Experiments:
HckKD = HckKD (Homo sapiens (Human), UniProt P08631); assay: Tyrosine kinase IC50, HckKD; type: biochemical; settings: Table 9
Sequence of HckKD (P08631 262-515): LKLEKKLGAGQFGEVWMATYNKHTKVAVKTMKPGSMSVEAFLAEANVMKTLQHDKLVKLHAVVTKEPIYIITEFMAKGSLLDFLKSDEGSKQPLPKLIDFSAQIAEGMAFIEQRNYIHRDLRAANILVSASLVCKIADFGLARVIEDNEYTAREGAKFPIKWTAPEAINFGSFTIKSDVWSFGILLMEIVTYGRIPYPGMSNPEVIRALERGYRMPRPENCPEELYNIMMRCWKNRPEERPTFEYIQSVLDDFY

PfCDPK1 = PfCDPK1 (Plasmodium falciparum (isolate 3D7), UniProt P62344); assay: biochemical
PfCDPK4 = PfCDPK4 (Plasmodium falciparum (isolate 3D7), UniProt Q8IBS5); assay: biochemical
human fibroblast = assay: Human fibroblast replication / cytotoxicity (Alamar blue); type: cell-based
[1] = test system: human promyelocytic leukemia (HL-60); assay: Growth inhibition of human cell line HL-60
[2] = test system: human lymphocyte (CRL8155); assay: Growth inhibition of human cell line CRL8155
CpCDPK1 = CpCDPK1 (Cryptosporidium parvum (strain Iowa II), UniProt A3FQ16); assay: biochemical; type: biochemical
Sequence of CpCDPK1 (A3FQ16 1-538): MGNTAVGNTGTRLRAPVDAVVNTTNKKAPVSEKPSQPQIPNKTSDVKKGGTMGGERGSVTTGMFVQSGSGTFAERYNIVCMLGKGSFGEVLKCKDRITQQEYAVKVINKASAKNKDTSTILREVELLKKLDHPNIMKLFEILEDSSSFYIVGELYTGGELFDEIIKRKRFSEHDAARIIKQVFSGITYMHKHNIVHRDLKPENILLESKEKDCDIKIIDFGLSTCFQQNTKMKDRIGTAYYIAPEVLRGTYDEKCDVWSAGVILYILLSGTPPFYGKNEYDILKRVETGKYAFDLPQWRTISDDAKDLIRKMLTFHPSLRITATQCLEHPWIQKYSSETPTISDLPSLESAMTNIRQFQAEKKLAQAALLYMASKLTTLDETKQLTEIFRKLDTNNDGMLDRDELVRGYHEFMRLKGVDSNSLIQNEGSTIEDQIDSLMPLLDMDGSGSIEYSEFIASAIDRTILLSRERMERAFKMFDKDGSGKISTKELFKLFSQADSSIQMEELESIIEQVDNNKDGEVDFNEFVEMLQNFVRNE

[3] = Solubility in buffers of various pH; type: physicochemical; settings: buffer
glioma derived (SF539) = assay: Growth inhibition of human cell line SF539; settings: 10 μM
[4] = test system: colorectal carcinoma (HC 2998); assay: Growth inhibition of human cell line HC 2998; settings: 10 μM
[5] = Blood levels after oral gavage dosing of mice (LC-MS); settings: mouse, in vivo, po
[6] = pH 6.5, aqueous buffer, read-out: Experimental Solubility pH 6.5

For `CC(C)Oc1ccc2cc(-c3nn(CC4CCNCC4)c4ncnc(N)c34)ccc2c1` [Compound 32, 3-(6-isopropoxynaphthalen-2-yl)-1-(piperidin-4-ylmethyl)-1H-pyrazolo[3,4-d]pyrimidin-4-amine], the IC50 (HckKD) was greater than 10 µM, the EC50 (PfCDPK1) was 365 nM and the EC50 (PfCDPK4) was 55.4 nM.
In the case of `Nc1ncnc2c1c(-c1ccc3cc(OCc4cccc(Cl)c4)ccc3c1)nn2CC1CCNCC1` [Compound 38, 3-(6-(3-chlorobenzyloxy)naphthalen-2-yl)-1-(piperidin-4-ylmethyl)-1H-pyrazolo[3,4-d]pyrimidin-4-amien], the “Observed HFF Toxicity (T at concentration)” value (from here on “Observed HFF Toxicity”) (human fibroblast) is reported as “T at 100 μM”, the EC50 (PfCDPK1) is reported as 45.2 nM and the EC50 (PfCDPK4) is reported as 34.9 nM. For the same molecule, the “Cell Toxicity HL60, % at 10 μM” value [1] was less than 30% at 10 μM, the “Cell Toxicity HL60, % at 30 μM” value ([1]; 30 μM) was 98% at 30 μM and the “Cell Toxicity CRL8155, % at 10 μM” value [2] was less than 30% at 10 μM. The “Cell Toxicity CRL8155, % at 30 μM” value ([2]; 30 μM) was 98% at 30 μM.
Molecule `CCOc1ccc2cc(-c3nn(C(C)C)c4ncnc(N)c34)ccc2c1` [Compound 7r, 3-(6-ethoxynaphthalen-2-yl)-1-isopropyl-1H-pyrazolo[3,4-d]pyrimidin-4-amine] has an IC50 (CpCDPK1; read-out: CpCDPK1 IC50) of 0.012 µM, an IC50 (HckKD) of 0.218 µM and an EC50 (PfCDPK1) of 1290 nM. The EC50 (PfCDPK4) was 429 nM, the solubility [3, 6] was 12 µM (≈ 4.17 µg/mL) and the “Cell Toxicity SF539, % at 10 μM” value (glioma derived (SF539)) was less than 30% at 10 μM. The “Cell Toxicity HL60, % at 10 μM” value [1] was less than 30% at 10 μM, the “Cell Toxicity CRL8155, % at 10 μM” value [2] was less than 30% at 10 μM and the “Cell Toxicity HCC2998, % at 10 μM” value [4] was less than 30% at 10 μM.
In the case of `Nc1ncnc2c1c(-c1ccc3oc(-c4ccccc4)nc3c1)nn2CC1CCNCC1` [Compound 120], the “Observed HFF Toxicity” value (human fibroblast) is reported as “T at 25 μM”, the EC50 (PfCDPK1) is reported as 25.5 nM and the EC50 (PfCDPK4) is reported as 214 nM. For the same molecule, the solubility [3, 6] was 44 µM (≈ 18.7 µg/mL).
With `CC(C)n1nc(-c2ccc3cc(OCc4ccccc4)ccc3c2)c2c(N)ncnc21` [Compound 40, 3-(6-(benzyloxy)naphthalen-2-yl)-1-isopropyl-1H-pyrazolo[3,4-d]pyrimidin-4-amine] the “Observed HFF Toxicity” value (human fibroblast) was “T at 100 μM”, the EC50 (PfCDPK1) was 96.3 nM and the EC50 (PfCDPK4) was 514 nM.
For `CC(C)COc1ccc2cc(-c3nn(CC4CCNCC4)c4ncnc(N)c34)ccc2c1` [Compound 44, 3-(6-isobutoxynaphthalen-2-yl)-1-(piperidin-4-ylmethyl)-1H-pyrazolo[3,4-d]pyrimidin-4-amine], the “Observed HFF Toxicity” value (human fibroblast) was “T at 100 μM”, the EC50 (PfCDPK1) was 182 nM and the EC50 (PfCDPK4) was 58.3 nM. For the same molecule, the solubility ([3]; aqueous buffer, pH 2.0, read-out: Experimental Solubility pH 2.0) was 47 µM (≈ 20.2 µg/mL), the solubility [3, 6] was 38 µM (≈ 16.4 µg/mL) and the solubility ([3]; pH 7.4, aqueous buffer, read-out: Experimental Solubility pH 7.4) was 33 µM (≈ 14.2 µg/mL). For the same molecule, the AUC [5] was 2.47 µM·h, the Cmax [5] was 0.95 µM and the Tmax [5] was 3 h.
`CC(C)Oc1ccc2cc(-c3nn(C(C)C)c4ncnc(N)c34)ccc2c1` [Compound 11, 3-(6-isopropoxynaphthalen-2-yl)-1-isopropyl-1H-pyrazolo[3,4-d]pyrimidin-4-amine] showed an IC50 (HckKD) of 0.541 µM, an EC50 (PfCDPK1) of 373 nM and an EC50 (PfCDPK4) of 549 nM. The “Cell Toxicity SF539, % at 10 μM” value (glioma derived (SF539)) was less than 30% at 10 μM, the “Cell Toxicity HL60, % at 10 μM” value [1] was less than 30% at 10 μM and the “Cell Toxicity CRL8155, % at 10 μM” value [2] was less than 30% at 10 μM. The “Cell Toxicity HCC2998, % at 10 μM” value [4] was less than 30% at 10 μM.
In the case of `C=CCOc1ccc2cc(-c3nn(C(C)C)c4ncnc(N)c34)ccc2c1` [Compound 41, 3-(6-(allyloxy)naphthalen-2-yl)-1-isopropyl-1H-pyrazolo[3,4-d]pyrimidin-4-amine], the “Observed HFF Toxicity” value (human fibroblast) is reported as “T at 100 μM”, the EC50 (PfCDPK1) is reported as 36.3 nM and the EC50 (PfCDPK4) is reported as 19.2 nM. The solubility [3, 6] was 4.4 µM (≈ 1.58 µg/mL), the “Cell Toxicity HL60, % at 10 μM” value [1] was less than 30% at 10 μM and the “Cell Toxicity CRL8155, % at 10 μM” value [2] was less than 30% at 10 μM. It also gave an AUC [5] of 52.9 µM·h, a Cmax [5] of 13.6 µM and a Tmax [5] of 1.67 h.
In the case of `CCCOc1ccc2cc(-c3nn(CC4CCNCC4)c4ncnc(N)c34)ccc2c1` [Compound 33, 1-(piperidin-4-ylmethyl)-3-(6-propoxynaphthalen-2-yl)-1H-pyrazolo[3,4-d]pyrimidin-4-amine], the “Observed HFF Toxicity” value (human fibroblast) is reported as “T at 100 μM”, the IC50 (HckKD) is reported as greater than 10 µM and the EC50 (PfCDPK1) is reported as 196 nM. For the same molecule, the EC50 (PfCDPK4) was 21.1 nM, the “Cell Toxicity SF539, % at 10 μM” value (glioma derived (SF539)) was less than 30% at 10 μM and the “Cell Toxicity HL60, % at 10 μM” value [1] was less than 30% at 10 μM. For the same molecule, the “Cell Toxicity CRL8155, % at 10 μM” value [2] was less than 30% at 10 μM and the “Cell Toxicity HCC2998, % at 10 μM” value [4] was 30% at 10 μM.
In the case of `CCCCOc1ccc2cc(-c3nn(C(C)C)c4ncnc(N)c34)ccc2c1` [Compound 42, 3-(6-butoxynaphthalen-2-yl)-1-isopropyl-1H-pyrazolo[3,4-d]pyrimidin-4-amine], the “Observed HFF Toxicity” value (human fibroblast) is reported as “T at 100 μM”, the EC50 (PfCDPK1) is reported as 156 nM and the EC50 (PfCDPK4) is reported as 308 nM. For the same molecule, the solubility [3, 6] was 4.4 µM (≈ 1.65 µg/mL), the AUC [5] was 40.6 µM·h and the Cmax [5] was 10.7 µM. It also gave a Tmax [5] of 2.67 h.
For `CCOc1ccc2cc(-c3nc(C(C)(C)C)n4ccnc(N)c34)ccc2c1` [Compound 69, 3-tert-butyl-1-(6-ethoxynaphthalen-2-yl)imidazo[1,5-a]pyrazin-8-amine], the “Observed HFF Toxicity” value (human fibroblast) was “T at 25 μM”, the EC50 (PfCDPK1) was 198 nM and the EC50 (PfCDPK4) was 132 nM. For the same molecule, the solubility [3, 6] was 3 µM (≈ 1.08 µg/mL), the “Cell Toxicity HL60, % at 10 μM” value [1] was less than 30% at 10 μM and the “Cell Toxicity CRL8155, % at 10 μM” value [2] was less than 30% at 10 μM.
In the case of `C=CCOc1ccc2cc(-c3nn(CC4CCNCC4)c4ncnc(N)c34)ccc2c1` [Compound 36, 3-(6-(allyloxy)naphthalen-2-yl)-1-(piperidin-4-ylmethyl)-1H-pyrazolo[3,4-d]pyrimidin-4-amine], the “Observed HFF Toxicity” value (human fibroblast) is reported as “T at 100 μM”, the IC50 (HckKD) is reported as greater than 10 µM and the EC50 (PfCDPK1) is reported as 146 nM. For the same molecule, the EC50 (PfCDPK4) was 15.7 nM, the “Cell Toxicity SF539, % at 10 μM” value (glioma derived (SF539)) was less than 30% at 10 μM and the “Cell Toxicity HL60, % at 10 μM” value [1] was less than 30% at 10 μM. The “Cell Toxicity CRL8155, % at 10 μM” value [2] was less than 30% at 10 μM, the “Cell Toxicity HCC2998, % at 10 μM” value [4] was less than 30% at 10 μM and the AUC [5] was 1.83 µM·h. The Cmax [5] was 0.59 µM and the Tmax [5] was 3.67 h.
In the case of `CC(C)n1nc(Cc2cccc3ccccc23)c2c(N)ncnc21` [Compound 3, 1-isopropyl-3-(naphthalen-1-ylmethyl)-1H-pyrazolo[3,4-d]pyrimidin-4-amine], the IC50 (HckKD) is reported as 1.38 µM, the “Cell Toxicity SF539, % at 10 μM” value (glioma derived (SF539)) is reported as less than 30% at 10 μM and the “Cell Toxicity HL60, % at 10 μM” value [1] is reported as less than 30% at 10 μM. The “Cell Toxicity CRL8155, % at 10 μM” value [2] was less than 30% at 10 μM and the “Cell Toxicity HCC2998, % at 10 μM” value [4] was less than 30% at 10 μM.
With `CCCCOc1ccc2cc(-c3nn(CC4CCNCC4)c4ncnc(N)c34)ccc2c1` [Compound 35, 3-(6-butoxynaphthalen-2-yl)-1-(piperidin-4-ylmethyl)-1H-pyrazolo[3,4-d]pyrimidin-4-amine] the IC50 (CpCDPK1; Table 8, read-out: IC50 (μM) CpCDPK1) was 0.0044 µM, the “Observed HFF Toxicity” value (human fibroblast) was 25 to 100 µM and the IC50 (HckKD) was greater than 10 µM. The EC50 (PfCDPK1) was 151 nM, the EC50 (PfCDPK4) was 31.2 nM and the solubility [3, 6] was 45 µM (≈ 19.4 µg/mL). For the same molecule, the “Cell Toxicity SF539, % at 10 μM” value (glioma derived (SF539)) was less than 30% at 10 μM, the “Cell Toxicity HL60, % at 10 μM” value [1] was less than 30% at 10 μM and the “Cell Toxicity CRL8155, % at 10 μM” value [2] was less than 30% at 10 μM. For the same molecule, the “Cell Toxicity HCC2998, % at 10 μM” value [4] was less than 30% at 10 μM.
For `Nc1ncnc2c1c(-c1ccc3cc(OCc4ccccc4Cl)ccc3c1)nn2CC1CCNCC1` [Compound 37, 3-(6-(2-chlorobenzyloxy)naphthalen-2-yl)-1-(piperidin-4-ylmethyl)-1H-pyrazolo[3,4-d]pyrimidin-4-amine], the “Observed HFF Toxicity” value (human fibroblast) was “T at 100 μM”, the EC50 (PfCDPK1) was 95.8 nM and the EC50 (PfCDPK4) was 71.6 nM.
In the case of `CCCOc1ccc2cc(-c3nn(C(C)C)c4ncnc(N)c34)ccc2c1` [Compound 12, 1-isopropyl-3-(6-propoxynaphthalen-2-yl)-1H-pyrazolo[3,4-d]pyrimidin-4-amine], the IC50 (HckKD) is reported as 0.244 µM, the EC50 (PfCDPK1) is reported as 659 nM and the EC50 (PfCDPK4) is reported as 526 nM. For the same molecule, the “Cell Toxicity SF539, % at 10 μM” value (glioma derived (SF539)) was less than 30% at 10 μM, the “Cell Toxicity HL60, % at 10 μM” value [1] was less than 30% at 10 μM and the “Cell Toxicity CRL8155, % at 10 μM” value [2] was less than 30% at 10 μM. For the same molecule, the “Cell Toxicity HCC2998, % at 10 μM” value [4] was less than 30% at 10 μM.
